Experimental data taken from patent publication US5747495A, “Method for treating hypertension using pyrazolopyrimidine derivatives” (Maeda; Hiroshi, priority 1995, dated 1998).
“And” between values parts separate entries of the source, which are not always exact repeats. Identical values can stand only once.

Assays:
[1] = target: T1, cow milk xanthine oxidase (Bos taurus, UniProt P80457); test: Inhibition of uric acid production by xanthine oxidase in vitro; type: biochemical
T1 construct: in the presence of cow milk xanthine oxidase; from tissue; host or cells: cow milk
T1 sequence (P80457 whole entry): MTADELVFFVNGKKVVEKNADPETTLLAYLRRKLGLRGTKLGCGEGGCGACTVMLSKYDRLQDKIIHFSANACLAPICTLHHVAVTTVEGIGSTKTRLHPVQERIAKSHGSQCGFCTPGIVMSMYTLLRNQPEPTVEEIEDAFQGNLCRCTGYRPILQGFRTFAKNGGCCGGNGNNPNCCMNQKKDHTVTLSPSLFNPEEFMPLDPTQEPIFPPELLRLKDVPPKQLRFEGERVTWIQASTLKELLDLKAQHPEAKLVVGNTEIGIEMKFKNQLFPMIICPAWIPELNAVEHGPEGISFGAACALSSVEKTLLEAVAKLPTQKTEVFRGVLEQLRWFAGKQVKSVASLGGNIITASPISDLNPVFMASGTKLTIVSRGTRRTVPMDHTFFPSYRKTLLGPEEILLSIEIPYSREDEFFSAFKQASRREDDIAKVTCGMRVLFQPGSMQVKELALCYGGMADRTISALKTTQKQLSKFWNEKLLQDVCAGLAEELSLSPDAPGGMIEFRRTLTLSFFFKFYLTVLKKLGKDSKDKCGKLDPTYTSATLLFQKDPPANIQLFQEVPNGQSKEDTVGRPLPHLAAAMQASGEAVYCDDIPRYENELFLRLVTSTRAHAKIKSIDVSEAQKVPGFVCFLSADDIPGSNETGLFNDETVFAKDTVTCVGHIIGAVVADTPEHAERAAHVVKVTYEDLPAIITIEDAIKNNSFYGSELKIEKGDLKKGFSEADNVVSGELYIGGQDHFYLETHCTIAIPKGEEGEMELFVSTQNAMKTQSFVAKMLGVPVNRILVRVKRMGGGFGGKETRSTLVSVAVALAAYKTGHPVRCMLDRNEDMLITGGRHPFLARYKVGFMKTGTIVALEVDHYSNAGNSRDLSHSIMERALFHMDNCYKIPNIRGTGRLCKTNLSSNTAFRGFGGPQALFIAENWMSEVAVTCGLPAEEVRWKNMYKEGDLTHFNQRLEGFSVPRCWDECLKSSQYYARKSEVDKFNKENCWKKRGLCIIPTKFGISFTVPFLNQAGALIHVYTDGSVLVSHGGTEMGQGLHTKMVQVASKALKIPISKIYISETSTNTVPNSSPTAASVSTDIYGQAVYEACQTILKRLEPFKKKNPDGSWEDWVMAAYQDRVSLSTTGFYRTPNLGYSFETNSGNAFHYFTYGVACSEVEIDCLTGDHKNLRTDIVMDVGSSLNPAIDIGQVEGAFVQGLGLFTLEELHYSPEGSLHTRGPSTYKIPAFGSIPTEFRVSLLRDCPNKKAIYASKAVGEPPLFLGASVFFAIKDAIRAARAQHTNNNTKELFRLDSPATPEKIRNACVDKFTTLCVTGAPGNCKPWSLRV
Protocol: Inhibitory Effect of AHPP Against Uric Acid Production by Xanthine Oxidase In Vitro
Rate of uric acid production was determined by measuring the increase of an optical absorbance at 290 nm in 50 mM phosphate buffer solution (pH 7.5) containing 2.19-21.9 μmole/L of xanthine and 0-0.44 μmole/L AHPP in the presence of cow milk xanthine oxidase in the final concentration of 3.33 mU/ml. […] The inhibitory coefficient (Ki) of AHPP for xanthine oxidase was determined to be 0.2 μM, by an analysis of its reaction velocity kinetics.

[2] = target: xanthine oxidase derived from cow milk (Bos taurus, UniProt P80457); test: Inhibition of superoxide production by xanthine oxidase in vitro (lucigenin chemiluminescence); type: biochemical; conditions: for Integral value of intensity of chemiluminescence/10 min: average of two measurements, without AHPP 5.2 × 10^6 count
xanthine oxidase derived from cow milk, sequence (P80457 whole entry): as above
Protocol: Inhibitory Effect of AHPP against Superoxide Production by Xanthine Oxidase In Vitro
Production of superoxide radicals was determined by measuring a chemiluminescence observed in 100 mM phosphate buffer (pH 7.4) containing 10 μmole/L lucigenin and […] xanthine in the presence of 20 U/ml of xanthine oxidase derived from cow milk. Further, the inhibition of superoxide generation by the AHPP was evaluated by addition of 0-100 μmole/L of AHPP into the reaction mixture.

[3] = test system: Rabbit Aortic Ring; test: Relaxation of phenylepherine-contracted rabbit aortic ring by acetylcholine in the presence of AHPP; parameters: species or system New Zealand White rabbit; conditions: for Amount of acethylcholine required to inhibit 50% relaxation of aorta ring: 0.11 without AHPP
Protocol: Synergistic Vascular Relaxation Effect to Acetylcholine of Rabbit Aortic Ring by AHPP Aortic ring with a diameter of 5 mm was prepared from chest aorta of New Zealand White female rabbits with a body weight of 2.5-3.0 kg. The rings were surgically prepared and hanged into the organ bath containing 20 ml of Krebs solution, which was kept at 37° C. and supplemented with 95% O2 and 5% CO2, for determination of the tension. Aortic ring relaxation by […] acetylcholine was measured in the prescence of 0, 100, and 300 μmole/L of AHPP, after aortic ring contraction was induced by 0.15 μmole/L phenylepherine.

[4] = test system: Spontaneously Hypertensive Rats; test: Mean arterial blood pressure of spontaneously hypertensive rats after intravenous injection; type: in vivo, rat; conditions: 50 mg/kg, average of 8 rats
Protocol: Effect of Intravenous Injection of AHPP on the Blood Pressure of Spontaneously Hypertensive Rats
Eighteen weeks old spontaneously hypertensive 8 male rats weighing 300-400 g were intravenously infused with 50 mg/kg of AHPP in a solution dissolved in 1 ml of 0.1 M NaOH for 5 minutes (8 rats), and mean arterial blood pressure was measured under anesthesia. Eight control rats were received only 0.1 M NaOH by intravenous infusion.
Dose of AHPP. 50 mg/kg in rats. 0.33 mmol/ml, 1.0 ml/5 min. See text for details. Average value of 8 measurements ±SD.

[5] = test system: Spontaneously Hypertensive Rats; test: Systolic blood pressure of spontaneously hypertensive rats after oral administration; type: in vivo, rat; conditions: 100 mg/kg oral, 4 hours after treatment, male spontaneously hypertensive rats
Protocol: Effects of Oral Administration of AHpp on the Blood Pressure of Spontaneously Hypertensive Rats
Four male spontaneously hypertensive rats with a body weight of […] and 4 male rats with a body weight of 200-300 g were orally given with 100 mg/kg of AHPP and a systolic blood pressure in tail artery was examined 4 hours after the treatment. Systolic blood pressure of the treated group was reduced to 70% the value of before

[6] = test system: xanthine oxidase; conditions: J. Biol. Chem., 226, 993-1000, 1957; cited from earlier work
[7] = test system: xanthine dehydrogenase; conditions: Yokohama Med. Bull., 29, 53-58, 1978; cited from earlier work
[8] = test system: tryptophan pyrolase; conditions: Life Sci., 8, 843-851, 1969; cited from earlier work

In the case of `Nc1nc(O)nc2[nH]ncc12` [AHPP, 4-amino-6-hydroxypyrazolo [3,4-d]pyrimidine], the “inhibition of uric acid production by xanthine oxidase” value ([1]; 0-0.44 μmole/L AHPP, pH 7.5) is reported as “inhibited by AHPP in a dose-dependent manner”, the Ki ([1]; pH 7.5, 2.19-21.9 μmole/L xanthine, 0-0.44 μmole/L AHPP, 3.33 mU/ml enzyme, read-out: inhibitory coefficient (Ki) for xanthine oxidase) is reported as 200 nM and the “type of inhibition of xanthine oxidase” value ([1]; reaction velocity kinetics) is reported as “competitive inhibition”. The “inhibition of superoxide production by xanthine oxidase” value ([2]; 0-100 μmole/L AHPP, pH 7.4) was “inhibit superoxide production by xanthine oxidase in a dose-dependent manner”, the “Integral value of intensity of chemiluminescence/10 min” value ([2]; 1 μmole/L AHPP) was 4.4 × 10^6 count and the “Integral value of intensity of chemiluminescence/10 min” value ([2]; 10 μmole/L AHPP) was 1.6 × 10^6 count. For the same compound, the “dose of phenylepherine required for 50% relaxation of phenylepherine-induced aortic ring contraction” value ([3]; 0, 100, and 300 μmole/L AHPP) was “reduced depending on the concentration of AHPP”, the “Amount of acethylcholine required to inhibit 50% relaxation of aorta ring” value ([3]; 100 μmole/L AHPP, contraction by 0.15 μmole/L phenylepherine, average of four measurements) was 0.075 and the “Amount of acethylcholine required to inhibit 50% relaxation of aorta ring” value ([3]; 300 μmole/L AHPP, contraction by 0.15 μmole/L phenylepherine, average of four measurements) was 0.055. The “Mean arterial blood pressure (100% = preinjection value)” value ([4]; 5 min after iv, control 105.5 ± 7.5) was 98.3 ± 2.7%, the “Mean arterial blood pressure (100% = preinjection value)” value ([4]; 10 min after iv, control 107.3 ± 6.9) was 92.2 ± 6.1% and the “Mean arterial blood pressure (100% = preinjection value)” value ([4]; 15 min after iv, control 106.1 ± 6.3) was 91.1 ± 5.6%. For the same compound, the “Mean arterial blood pressure (100% = preinjection value)” value ([4]; 20 min after iv, control 105.0 ± 6.6) was 86.9 ± 8.0%, the “Mean arterial blood pressure (100% = preinjection value)” value ([4]; 30 min after iv, control 103.3 ± 4.2) was 81.7 ± 5.0% and the “Mean arterial blood pressure (100% = preinjection value)” value ([4]; 40 min after iv, control 100.5 ± 3.1) was 77.7 ± 5.2%. For the same compound, the “Mean arterial blood pressure (100% = preinjection value)” value ([4]; 50 min after iv, control 98.9 ± 3.3) was 76.1 ± 7.2%, the “Mean arterial blood pressure (100% = preinjection value)” value ([4]; 60 min after iv, control 97.5 ± 4.1) was 73.5 ± 7.5% and the “Mean arterial blood pressure (100% = preinjection value)” value ([4]; 70 min after iv, control 96.7 ± 5.0) was 72.4 ± 6.6% and 72%. The “Systolic blood pressure in tail artery, % of value before” value [5] was 70%, the “inhibition of xanthine oxidase” value [6] was “potent inhibitor” and the “inhibition of xanthine dehydrogenase” value [7] was “potent inhibitor”. For the same compound, the “inhibition of tryptophan pyrolase” value [8] was “potent inhibitor”.
`CC(=O)OCC[N+](C)(C)C` [acetylcholine, reference compound] showed an EC50 ([3]; Oryctolagus cuniculus, 0 μmole/L AHPP, contraction by 0.15 μmole/L phenylepherine, average of four measurements, read-out: Amount of acethylcholine required to inhibit 50% relaxation of aorta ring) of 110 nM.
